In patent EP0498830B1, “GLUTAMIC AND ASPARTIC ACID DERIVATIVES WITH ANTIGASTRIN ACTIVITY AND A METHOD FOR THEIR PREPARATION” (ROTTA RESEARCH LABORATORIUM S.P.A., priority 1989, dated 1991):
In brackets after ≈: the same amount, converted by molar mass. Where two headings read alike, the source gives them in different places.

How the values were obtained:
[1] = target: T1, gastrin receptor sites on the parietal cell membranes of the fundic mucosa of a guinea-pig stomach (Cavia porcellus, UniProt H0VZC5); experiment: Inhibition of binding of tritiated pentagastrin to isolated guinea-pig gastric glands; parameters: from tissue; host or cells: isolated gastric glands from guinea-pig fundic mucosa (collagenase digestion); conditions: for IC50: displacement of 50% of pentagastrin tritiate, 30 minutes at 25°C, read-out: IC50
T1 sequence (H0VZC5 1-426): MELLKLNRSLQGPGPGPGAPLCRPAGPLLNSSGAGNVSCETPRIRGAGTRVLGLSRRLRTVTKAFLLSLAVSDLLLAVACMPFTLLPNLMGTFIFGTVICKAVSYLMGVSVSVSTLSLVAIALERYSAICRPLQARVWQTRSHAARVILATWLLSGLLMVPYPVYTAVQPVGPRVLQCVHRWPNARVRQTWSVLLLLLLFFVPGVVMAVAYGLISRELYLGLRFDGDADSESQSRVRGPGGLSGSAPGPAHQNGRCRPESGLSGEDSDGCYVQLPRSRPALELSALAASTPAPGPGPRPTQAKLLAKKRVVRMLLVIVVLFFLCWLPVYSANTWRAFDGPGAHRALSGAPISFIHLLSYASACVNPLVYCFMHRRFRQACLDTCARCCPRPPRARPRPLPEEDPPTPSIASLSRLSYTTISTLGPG
Description: (§1) The capacity of some of the compounds which are the subject of the invention to inhibit the binding of pentagastrin-[beta-alanyl-3-3H(N)] to the gastrin receptor sites on the parietal cell membranes of the fundic mucosa of a guinea-pig stomach was evaluated by comparison with the displacement of pentagastrin induced by proglumide, which is a reference antigastrin compound, by lorglumide, which is a powerful CCK antagonist mentioned above, and by the compound D5 which is the optical antipode (the L-series enantiomer) of the compound D1.
(§2) Male guinea pigs weighing about 400-500g were used. After the guinea pig had been killed, its stomach was removed and placed in oxygenated SPB buffer at 37°C (SPB = saline phosphate buffer: 149.6 mM NaCl, 3 mM K₂HPO₄, 0.64 mM NaH₂PO₄, pH 7.3).
(§3) After washing in the buffer, the stomach was placed on a petri dish and the antral part discarded.
The mucosa of the remaining part was removed from the underlying muscular part and was then chopped and transferred to a flask containing a collagenase digestion solution, 0.1% BSA and 0.2% glucose. The solution was incubated at 37°C for 10 minutes under agitation and a stream of 0₂.
During the incubation period, the tissue was passed several times through a series of pipettes with decreasing diameters in order to facilitate its digestion. At the end of the period, the tissue was removed and centrifuged at 1000 rpm. The supernatant liquid resulting from the centrifuging was discarded and the pellet washed several times with a washing buffer containing EPTA to remove the collagenase.
The glands were then isolated from the undigested tissue by conventional techniques, suspended in Hepes buffer for binding and incubated together with a radioactive tracer and the compounds under test for 30 minutes at 25°C.
After the supernatant liquid had been removed by centrifuging, the radioactivity associated with the pellet was determined with a liquid scintillator. The specific binding was determined as the difference between the binding in the absence and in the presence of 10⁻⁶ M pentagastrin.
The results obtained are shown in Table 1 which gives the IC50, that is, the concentration (in moles/litre) of the antagonist which can displace 50% of the pentagastrin tritiate from the receptor.

[2] = test system: gastric acid secretion induced by pentagastrin; experiment: Antisecretive activity in anaesthetised rats, stimulant pentagastrin; assay type: in vivo; conditions: for ED50: Rattus norvegicus, iv, pentagastrin 30 mcg/kg/h, I.V. bolus, anaesthetised rats, read-out: Antagonistic activity (ED50 mg/kg IV) towards gastric acid secretion induced by pentagastrin
Description: The antisecretive activity was determined in rats with the use of male animals weighing about 200g, anaesthetised with urethane. Gastric secretion was stimulated with pentagastrin. K.S. Lai's method (Gut 5, (1964), 327-341) was used, with slight modifications.
After tracheotomy, oesophageal and duodenal cannulae were inserted. A tepid solution (37°C) of 0.25 mM NaOH was perfused through the stomach by means of a peristaltic pump at a constant flow rate of 1 ml/minute. After stabilisation for 20 minutes, the dose of the stimulant, indicated in Table 3, dissolved in a physiological solution, was perfused for 120 minutes at a rate of 0.95 ml/hour. After 60 minutes of perfusion (basic stimulation), the products under test were administered intravenously (I.V.) in boli whilst the perfusion of the stimulant continued for a further 60 minutes. The acid secretion was recorded continuously as a function of time.
The activity of the product was evaluated as the reduction in the secreted acidity after administration of the product as a percentage of the basic acidity measured during the first 60 minutes of collection during which only pentagastrin was present.
The antagonistic compounds tested were administered in different doses so that an ID50 (that is the dose (in mg/Kg I.V.) which can inhibit the effect of the pentagastrin by 50% could be calculated.
The results thus obtained are given in the following table in which the activities of the compounds are expressed as ID50s under the stimulus of pentagastrin at 30 mcg/Kg/h.

[3] = test system: guinea-pig gall bladders stimulated in vitro by CCK-8; conditions: CCK-8 10ng/ml; from U.S. Patent A-4 791 215; cited from earlier work
[4] = target: T2, central gastrin receptors (Mus musculus, UniProt P56481); experiment: Inhibition of binding of tritiated pentagastrin to mouse cerebral cortex membranes; parameters: Mouse cortex tissue was homogenised cold in 20 volumes of tris buffer (pH 7.7); from tissue; host or cells: mouse cerebral cortex membranes; species or system mice; conditions: for IC50: displacement of pentagastrin tritiate, 40 minutes at 37°C
T2 sequence (P56481 1-453): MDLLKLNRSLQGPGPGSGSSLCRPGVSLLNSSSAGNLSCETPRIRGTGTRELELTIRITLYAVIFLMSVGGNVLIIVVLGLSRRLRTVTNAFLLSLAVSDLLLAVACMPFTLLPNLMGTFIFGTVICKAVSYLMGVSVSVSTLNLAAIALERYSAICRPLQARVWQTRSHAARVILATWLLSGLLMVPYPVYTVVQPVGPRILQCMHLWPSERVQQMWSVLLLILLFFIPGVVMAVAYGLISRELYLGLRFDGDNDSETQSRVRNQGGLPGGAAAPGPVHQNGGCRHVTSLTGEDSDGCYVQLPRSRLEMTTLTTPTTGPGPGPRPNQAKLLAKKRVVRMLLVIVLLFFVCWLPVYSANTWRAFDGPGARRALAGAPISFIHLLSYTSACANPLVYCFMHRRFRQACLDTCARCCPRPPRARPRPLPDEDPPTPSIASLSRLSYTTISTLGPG
Description: (§4) Cerebral cortex membranes were therefore used and pentagastrin tritiate was again used as the ligand.
(§5) Mouse cortex tissue was homogenised cold in 20 volumes of tris buffer (pH 7.7). After washing and centrifuging, the final pellet was resuspended in 20 volumes of binding buffer containing, inter alia, TRIS, BSA and bacitracin. 0.4 ml of the membrane thus obtained were then incubated with a radioactive tracer and with the compounds under test for 40 minutes at 37°C.
(§6) After the supernatant liquid had been removed by centrifuging, the radioactivity associated with the pellet was determined, again with a liquid scintillator. The specific binding is the difference between the binding in the absence and in the presence of 10⁻⁶M pentagastrin.
(§7) Again, this gives the IC50s of the compounds tested with the meaning as given above.

[5] = test system: guinea-pig gall bladders stimulated in vitro by CCK-8; experiment: Anti-CCK activity on guinea-pig gall bladder contracted in vitro by CCK-8; conditions: CCK-8 10 ng/ml; at least three tests per compound
Description: In order to check the hypothesis that the molecular conformation of the subject compounds is suitable to give them a specific antagonistic activity towards gastrin and not towards CCK, the anticontracturant activity of some of the compounds of the invention was tested on guinea-pig gall bladders stimulated in vitro by CCK-8.
A longitudinal strip of guinea-pig gall bladder was placed in a bath for isolated organs in the presence of Krebs at a temperature of 32°C, continuously oxygenated by an oxygen-CO₂ mixture (95-5 V/V).
The isometric contractions were detected by means of a force transducer and recorded.
The gall bladder was contracted with the use of a 10ng/ml concentration of CCK-8; the antagonistic activity of the compounds towards the contracturant effect of the CCK was determined with the use of different concentrations and the IC50 value, that is, the concentration in mcg/ml of the compound which is able to antagonise the contracturant effect of the CCK by 50%, thus determined.
The results obtained are set out in the table below which gives the compounds tested and the IC50s which were calculated by the regression method on a set of at least three tests for each compound investigated.

[6] = test system: mouse colic adenocarcinoma; experiment: Pentagastrin-induced growth of transplanted colic tumour in mice; assay type: in vivo; conditions: 20 days
Description: (§8) Male mice weighing 20-25g were inoculated subcutaneously in the interscapular region with a suspension of 8 x 10⁴ tumour cells of a mouse colic adenocarcinoma.
(§9) 5 groups each of 10 animals were used, that is : one control group of animals, one group of animals treated with 250 mcg/ml of pentagastrin twice a day and two groups of animals treated with the compound A-5 in doses of 15 and 30 mg/Kg i.p. respectively, twice a day, plus pentagastrin in the manner described above.
(§10) After 20 days, the animals were killed and the fundic mucosa and the tumours were removed, weighed and extracted in order to determine their DNA content.

fundic mucosa [7] = experiment: Pentagastrin-induced hyperplasia of the fundic mucosa in tumour-bearing mice; assay type: in vivo; conditions: 20 days
Description: as §8, §9, §10

fundic mucosa [8] = experiment: as above; assay type: in vivo; conditions: pentagastrin alone, 250 mcg/ml twice a day, 20 days
From the text: (§11) Male mice weighing 20-25g were inoculated subcutaneously in the interscapular region with a suspension of 8 x 10⁴ tumour cells of a mouse colic adenocarcinoma. […] After 20 days, the animals were killed and the fundic mucosa and the tumours were removed, weighed and extracted in order to determine their DNA content.

[9] = test system: mouse colic adenocarcinoma; experiment: Pentagastrin-induced growth of transplanted colic tumour in mice; assay type: in vivo; conditions: pentagastrin alone, 250 mcg/ml twice a day, 20 days
From the text: as §11

[10] = target: T1, gastrin receptor sites on the parietal cell membranes of the fundic mucosa of a guinea-pig stomach; experiment: Inhibition of binding of tritiated pentagastrin to isolated guinea-pig gastric glands; parameters: from tissue; host or cells: isolated guinea-pig gastric (fundic) glands; conditions: displacement of 50% of pentagastrin tritiate; 30 minutes at 25°C
Description: as §1, §2, §3
The mucosa of the remaining part was removed from the underlying muscular part and was then chopped and transferred to a flask containing a collagenase digestion solution, 0.1% BSA and 0.2% glucose. […]
After the supernatant liquid had been removed by centrifuging, the radioactivity associated with the pellet was determined with a liquid scintillator. The specific binding was determined as the difference between the binding in the absence and in the presence of 10⁻⁶ M pentagastrin. […]

[11] = target: T2, central gastrin receptors; experiment: Inhibition of binding of tritiated pentagastrin to mouse cerebral cortex membranes; parameters: Cerebral cortex membranes were therefore used and pentagastrin tritiate was again used as the ligand; from tissue; host or cells: mouse cerebral cortex membranes; species or system mice; conditions: displacement of pentagastrin tritiate; 40 minutes at 37°C
Description: as §4, §5, §6, §7

mice = experiment: Acute toxicity LD50 IV in mice; conditions: LD50 IV mice / ID50 IV rats
in vivo = conditions: mouse, iv
[12] = PEG + A-5 15 mg/Kg i.p. twice a day
[13] = PEG + A-5 30 mg/Kg i.p. twice a day

CCCCCN(CCCCC)C(=O)C(CCC(=O)O)NC(=O)c1ccc(Cl)c(Cl)c1 (stereo not drawn) [Lorglumide, reference compound]
IC50 [1]: 11000 nM
times less active than the most powerful compounds of the series ([1]; ratio of IC50s, gastric glands): about 200 times
ED50 [2]: > 100 mg/kg
activity against pentagastrin-induced acid secretion ([2]; up to a dose of 100 mg/Kg): completely inactive
concentration inhibiting by 50% the contraction induced by CCK-8 [3]: 0.06 µg/mL
IC50 [4]: 6100 nM
times less powerful than the most active compounds ([4]; ratio of IC50s, cortical membranes): about 100 times
IC50 ACTIVITY [5]: 0.06 µg/mL (≈ 0.131 µM)

CC(C)(C)CCNC(=O)C(CCC(=O)O)NC(=O)c1cccc(Cl)c1 (racemic) [A5, ( ± )-4-[(3-chlorobenzoyl)-amino]-5-(3,3-dimethylbutylamino)-5-oxopentanoic acid]
IC50 [1]: 80 nM
ED50 [2]: 35 mg/kg
TUMOROUS DNA [6, 12]: 3.26 ± 0.49 mg
WEIGHT OF THE COLIC TUMOUR [6, 12]: 579.0 ± 40 mg
TUMOROUS DNA [6, 13]: 2.87 ± 0.2 mg
WEIGHT OF THE COLIC TUMOUR [6, 13]: 559.5 ± 43 mg
IC50 [4]: 96 nM
FUNDIC DNA (fundic mucosa [7]; [12]): 0.28 ± 0.02 mg
WEIGHT OF THE FUNDIC MUCOSA (fundic mucosa [7]; [12]): 25.1 ± 4.7 mg
FUNDIC DNA (fundic mucosa [7]; [13]): 0.23 ± 0.05 mg
WEIGHT OF THE FUNDIC MUCOSA (fundic mucosa [7]; [13]): 19.9 ± 2.1 mg

CCC(C)(C)CCNC(=O)C(CCC(=O)O)NC(=O)c1cccc(C)c1 (racemic) [A20]
IC50 [1]: 680 nM
ED50 [2]: 44 mg/kg
IC50 [4]: 830 nM
IC50 ACTIVITY [5]: > 100 µg/mL

CSCC[C@H](NC(=O)[C@H](Cc1c[nH]c2ccccc12)NC(=O)CCNC(=O)OC(C)(C)C)C(=O)N[C@@H](CC(=O)O)C(=O)N[C@@H](Cc1ccccc1)C(N)=O [Pentagastrin]
FUNDIC DNA (fundic mucosa [8]): 0.44 ± 0.03 mg
WEIGHT OF THE FUNDIC MUCOSA (fundic mucosa [8]): 36.0 ± 4.2 mg
TUMOROUS DNA [9]: 4.48 ± 0.29 mg
WEIGHT OF THE COLIC TUMOUR [9]: 779.7 ± 27 mg
IC50 [10]: 0.41 nM
IC50 [11]: 0.78 nM

CC(C)(C)CCNC(=O)[C@@H](CCC(=O)O)NC(=O)c1cccc(Cl)c1 [D1, D-4-(3-chlorobenzoylamino)-5-(3,3-dimethylbutylamino)-5-oxopentanoic acid]
IC50 [1]: 53 nM
ED50 [2]: 28 mg/kg
times more active than the corresponding L-enantiomers (compound D5) ([4]; cortical membranes): about 10 times
IC50 [4]: 61 nM
toxic dose (LD50) relative to the antigastrin dose (ID50) (mice): about 20 times
IC50 ACTIVITY [5]: 83 µg/mL (≈ 225 µM)
LD50 (in vivo): ~600 mg/kg
